“And” between values parts separate entries of the source, which are not always exact repeats. Equal entries are not always repeated. “Also recorded” adds a separate entry of the source. Where two headings read alike, the source gives them in different places.
Assays:
Substance P [1] = assay: BPS trial: urine Substance P / neuropeptide levels; assay type: in vivo, human; conditions: for urine SP / neuropeptide levels, words: in vivo
Text: (§1) a) Schematic of the study protocol. Ten patients with a long history of BPS (ref EAU guidelines) were enrolled after informed consent and instructed to fill in a questionnaire detailing frequency of urination, pain, frequency of pain medication and quality of life. Laboratory samples were obtained at diagnosis, after the initiation of Kineret treatment (n=10), during the “treatment break” and after continuation of Kineret treatment (n=9). Neuropeptides involved in the pain response (Substance P) were quantified in urine. Peripheral blood RNA was subjected to genome wide transcriptomic analysis to define molecular effects of Kineret treatment.

Substance P [2] = assay: Ten-patient CPPS trial: urine neuropeptides; assay type: in vivo, human; conditions: P<0.001
Description: A significant reduction in pain, urgency and frequency of urination was recorded in 9/10 patients (FIGS. 7c, 7d and 7e). Laboratory samples were obtained at diagnosis, after the initiation of anakinra treatment (n=10), during the “treatment break” and after continuation of anakinra treatment (n=9). Urine neuropeptides involved in the pain response (Substance P) were inhibited, with a biphasic response following the symptom score (FIG. 7f).

[3] = test system: patients with CPPS (Bladder, Urethral and Prostate Pain phenotype); assay: Clinical study, nine CPPS patients: symptom scoring (frequency, pain, QoL), side effects; assay type: in vivo, human; conditions: for clinical response in the detailed patient description, words: one patient per block (Patient 1-9); for Long-term follow-up: Comment: s.c. 100 mg long-term regimen, observation 24-397 days
Text: The effect of anakinra in the treatment of CPPS was studied in a clinical study. Inclusion criteria were CPPS mainly with the Bladder Pain phenotype, but also the with the Urethral and Prostate Pain phenotype. Exclusion criteria were uncontrolled diabetes mellitus, treatment for malignant disease within the preceding 10 years, pregnancy and age <18 years and ongoing infectious diseases, including urinary tract infections, and neutropenia (<1.5×10^9/L). Patients gave informed consent for the use of unidentified personal clinical data for research purposes. Included patients were examined using clinical standard methods to rule out any ongoing disease. Blood and serum for hemoglobulin, liver and kidney function tests and White Blood Cell (WBC) counts were analysed. Urine was obtained for dip stick test (leukocytesteras for WBC estimation, the nitur test for ruling out bacteriuria), standard urinary Interleukins (IL6, IL8 and IL1b) and for urine culture. Cystoscopy and CT urography were performed in all patients. Blood and serum analysis and cystoscopy were repeated approximately two weeks after the start of treatment, and after approximately three months. Nine patients were recruited (Table 2).
After inclusion, patients were treated with anakinra 100 mg by self-administrated subcutaneous injection, repeated once daily as a maximum, or (if relief of symptoms and pain) on demand when symptoms or pain recurred. Regularly symptom scoring on frequency, supra-pubic/bladder pain/prostate/urethral pain and Quality of Life was performed to evaluate treatment effect.

Substance P [4] = assay: Urine Substance P (SP) concentration, patients with chronic cystitis; assay type: in vivo, human
Description: Samples: Blood and urine samples for investigation of inflammatory processes as well as genetic and proteomic analyses.
For evaluation of the levels of systemic and local inflammatory processes, analyses of CRP, neutrophil count and Interleukins are performed in serum and urine.
To be able to define a treatment group where anakinra might serve as an effective therapeutic option, we searched for urine biomarkers. In addition to patient urine samples, samples were collected from healthy controls to compare urine concentrations of IL-1β and Substance P (SP). […] In contrast, SP concentrations was increased in patients during maximum symptoms (209 vs 75 pg/ml, P=0.003), indicating a biomarker for bladder inflammation (FIG. 2).

[5] = test system: neuroinflammation and IL-1-dependent gene expression; assay: Ten-patient CPPS trial: gene expression analysis of peripheral blood RNA; assay type: in vivo, human
Text: Blood samples for DNA- and RNA-analyses as well as urine samples for proteomics are obtained throughout the study.

NK1R and its ligand SP = conditions: mice; cited from earlier work
[6] = test system: neuro-inflammation, TLR dependent pattern recognition and IL-1 signaling; IL-1R1 dependent gene network; assay: BPS trial: transcriptomic analysis of peripheral blood RNA; assay type: in vivo, human; conditions: for gene expression, words: peripheral blood RNA
Text: as §1
To further understand the molecular basis of these effects, gene expression was analyzed longitudinally in RNA samples obtained; at onset, when the patients were in pain; at the time of maximum treatment effect in the first round; when pain returned during the treatment break; after reintroduction of Anakinra and at follow up, after 1-2 years of treatment. […] Due to the pronounced effect on IL-1 related genes, we further investigated a gene network downstream of IL-1R1. In 8 out of 10 patients a marked reduction in IL-1R1 dependent gene expression was detected, primarily genes including CXCL1, IL1RAP CXCL3 and the IL1R1 gene itself.

murine cystitis model = conditions: mice, cited from earlier work
[7] = post treatment, individual patients
[8] = pre treatment baseline, individual patients

For “anakinra: interleukin-1 receptor antagonist (r-metHuIL-1ra) produced in Escherichia coli; recombinant, slightly modified version of the human interleukin-1 receptor antagonist protein”, the “patients with reduced SP levels” value (Substance P [1]; first treatment round) was 9/10, the “urine SP / neuropeptide levels, words” value (Substance P [1]) was “markedly decreased” and the “urine SP / neuropeptide levels, words” value (Substance P [1]; listed as Kineret) was “rapid reduction”. For the same substance, the “urine neuropeptide (Substance P) levels, words” value (Substance P [2]) was “markedly reduced; also recorded: inhibited”, the “side effects” value ([3]; 100 mg s.c.) was “sparse and mild; also recorded: two cases of skin reaction at the place of injection; also recorded: one case of headache post injection; also recorded: without side effects; also recorded: minor headache” and the Side effect ([3]; 100 mg s.c., individual patients) was “local s.c. irritation; also recorded: not reported; also recorded: headache post inj”. The “clinical response in the detailed patient description, words” value ([3]; 100 mg s.c.) was “subjectively significantly improved with a clear reduction in frequency and local pain from the bladder; also recorded: pain relief followed immediately; also recorded: constant relief of symptoms; also recorded: the urge, frequency and bladder pain dramatically decreased; also recorded: the urgency and frequency was dramatically reduced; also recorded: relief of fever attacks and arthralgia, as well as reduced urgency and frequency”, the “clinical response in the detailed patient description, words” value ([3]; 100 mg s.c., listed as Anakinra) was “significant symptom and pain relief; also recorded: constant relief of symptoms” and the “maximum effect generally lasted” value ([3]; after one s.c. inj. of 100 mg) was 2 to 3 days. For the same substance, the “maximum effect on symptoms seen within” value ([3]; after one s.c. inj. of 100 mg, all nine patients) was 1 to 24 h, the “symptoms as measured by symptom scoring, words” value ([3]; all patients) was “dramatically reduced symptoms” and the “treatment effect during long-term follow-up, words” value ([3]; all patients) was “consistent”. The “experienced quality of life (QoL), words” value ([3]; human, in vivo) was “increased in all patients; also recorded: highly increased, or increased”, the “number of micturitions at night-time, words” value ([3]; human, in vivo) was “generally reduced” and the “number of micturitions during daytime, words” value ([3]; human, in vivo) was “reduced in all patients”. For the same substance, the “pain experienced by the patients, words” value ([3]; human, in vivo) was “decreased dramatically”, the “patients completely free from pain” value ([3]; of nine patients) was “five out of the nine” and the “Frequency (nycturia) post (number of micturations during nighttime)” value [3, 7] was “(0) and (1) (6×) and (2)”. For the same substance, the “Frequency post (number of micturations during daytime)” value [3, 7] was 5 (2×) and 4 (2×) and 6 (3×) and 8, the “Frequency (nycturia) pre (number of micturations during nighttime)” value [3, 8] was “(1-2) and (5) (3×) and (3) (2×) and (4) and (1)” and the “Frequency pre (number of micturations during daytime)” value [3, 8] was 12 (4×) and 11 and 8 (2×) and 7. The “Long-term follow-up: Comment” value ([3]; individual patients, 100 mg s.c. dosing 1 per 2-4 weeks) was “increased QoL,; also recorded: symptom free”, the “Long-term follow-up: Comment” value ([3]; individual patients, 100 mg s.c. dosing 1 per 2-3 days) was “highly increased QoL” and the “Long-term follow-up: Comment” value ([3]; individual patients, 100 mg s.c. dosing 1 per day) was “highly increased QoL,; also recorded: planned cystectomy postponed”. The “Long-term follow-up: Comment” value ([3]; individual patients, 100 mg s.c. dosing 1 per week) was “highly increased QoL; also recorded: highly increased QoL,; also recorded: highly increased QoL;”, the QoL reduction post ([3]; score 0-6, 0 not reduced QoL, post treatment, individual patients) was 2 (2×) and 1 (2×) and 0 (5×) and the Pain post ([3]; score 0-6, 0 symptom-free, post treatment, individual patients) was 2 (2×) and 1 (2×) and 0 (5×). The Pain pre ([3]; score 0-6, 6 severe pain, pre treatment baseline, individual patients) was 5 (3×) and 5-6 and 6 and 4 (4×), the QoL reduction pre ([3]; score 0-6, 6 severely reduced QoL, pre treatment baseline, individual patients) was 5 (3×) and 5-6 and 6 (2×) and 4 (3×) and the “urine SP levels after Anakinra treatment” value (Substance P [4]; FIG. 3) was “reduced”. The “urine SP concentration at time of minimum symptom, after treatment” value (Substance P [4]; paired samples, P=0.02) was 136 pg/mL, the “urine SP concentration at time of maximum symptom” value (Substance P [4]; paired samples, baseline of the comparison, P=0.02) was 243 pg/mL and the “gene expression at the RNA level, words” value [5] was “inhibited neuroinflammation and IL-1-dependent gene expression; also recorded: reduction in neuro-inflammation”. For the same substance, the “expression of NK1R and SP in the bladder mucosa, words” value (NK1R and its ligand SP) was “reduced the expression of the pain receptor NK1R and its ligand SP”, the “patients with marked reduction in IL-1R1 dependent gene expression” value ([6]; genes including CXCL1, IL1RAP, CXCL3, IL1R1) was 8 out of 10 and the “gene expression, words” value [6] was “inhibited by treatment”. The “gene expression, words” value ([6]; listed as Kineret) was “inhibited”, the “bacterial clearance, words” value (murine cystitis model) was “accelerate bacterial clearance” and the “bladder inflammation, words” value (murine cystitis model) was “dramatically reduce bladder inflammation”. For the same substance, the “bacterial clearance, words” value (murine cystitis model; listed as Kineret) was “increased bacterial clearance” and the “bladder inflammation, words” value (murine cystitis model; listed as Kineret) was “dramatically reduced bladder inflammation”.

Source: patent publication US20220252625A1, “TREATMENT AND DIAGNOSIS OF CHRONIC INFLAMMATORY CONDITIONS IN THE LOWER URINARY TRACT” (SELECTIMMUNE PHARMA AB, priority 2019, published 2022)
